Results taken from patent US6558664B1, “Chondrocyte cell-lines” (Cell Factors plc, priority 1994, dated 2003).

System: chondrocyte cell-lines cloned from foetal femur
Test: Von Kossa staining of calcium mineralisation in monolayer cultures of immortalised foetal femur chondrocyte cell-lines
Type: cell-based, human
Details: three chondrocyte clones incubated at the oncogene's non-permissive temperature (39° C.) in the presence of 1,25(OH)2D3; in its absence cells do not actively mineralise calcium; FIG. 5
Description: Foetal rib or femur tissue was taken at 7-9 weeks of gestation and placed in tissue culture flasks (Costar Limited, UK) in Eagle's minimum essential medium (Gibco Co Limited, UK) containing antibiotics and L-glutamine as well as 10% heat in activated foetal bovine serum. Cultured cells were maintained in a humidified atmosphere at 5% CO2 and 37° C. and medium changed at regular intervals (2-3 days). As is usual for primary cultures of resected tissue, cells within the sample move out from the body of the tissue, adhere to the flask surface, and replicate, potentially, to cover the whole surface of the tissue culture dish. After an initial period of, say, 2 weeks in primary culture. The cell population was transfected with a temperature sensitive mutant of the simium virus-40 derived large tumour (T) antigen using retroviral transduction.
In short, amphotropically packaged retroviral particles comprising this construct and a resistance marker to geneticin, G418 (kindly donated by Dr M O'Hare, Institute of Cancer Research, Royal Marsden Hospital, Lincoln's Inn, Sutton, Surrey, alternatively, essentially the same construct expressing a temperature sensitive mutant of the SV40-T oncogene was kindly donated by Professor Phil Gaillimore, CRC Laboratories, University of Birmingham, UK) was added to the medium together with polybrene (Sigma Chemicals) to a final concentration of 0.8 mg/ml. […]

C=C1/C(=C\C=C2/CCC[C@]3(C)[C@@H]([C@H](C)CCCC(C)(C)O)CC[C@@H]23)C[C@@H](O)C[C@@H]1O [1,25(OH)2D3]
calcium mineralisation (Von Kossa staining): each clone actively mineralises calcium
